“Also recorded” adds a separate entry of the source. Counter-ions that a name gives are not always drawn. Like-named read-outs stand apart in the source and are kept apart here.
Columns and labels:
sciatic nerve [1] = conditions: followed by capsaicin; cited from earlier work
sciatic nerve [2] = assay: Rat sciatic nerve block: motor function (extensor postural thrust); format: in vivo
Procedure: The rats were assigned to treatments via block randomization with a block size of 8. All rats were anesthetized by inhalation of 1-2% of sevoflurane (Abbott Laboratory, North Chicago, Ill.) until no withdrawal to pinch of the leg occurred (by forceps). […] All drugs were given alone or co-administered with capsaicin at 0.05%/1.6 mM. Co-administration of capsaicin was performed either 10 minutes after the first drug or simultaneously (e.g., mixed with the local anesthetic). The vehicle control group received local anesthetic followed by injection of vehicle 10 minutes later. Capsaicin was also injected alone as was normal saline. Each drug was injected was injected in a volume of 0.2 mL. The experimenter was blinded to the drug used, but was not blinded to the administration of a second drug 10 minutes later which was either capsaicin or vehicle alone.
The effects of local anesthetics and capsaicin on motor function and nociception were evaluated. Rats were examined before injection for baseline functions, and at 10, 20, 30, 60, and 90 minutes and 2, 3, 6, 12, 24, and 36 hours after drug administration. Motor function was assayed by holding the rat upright with the control hind limb extended so that the distal metatarsus and toes of the target leg supported the animal's weight; the extensor postural thrust was recorded as the force (in grams) applied by each of the two hind limbs to a digital platform balance (Ohaus Lopro; Fisher Scientific, Florham Park, N.J.). The reduction in this force, representing reduced extensor-muscle contraction caused by motor block, was calculated as a percentage of the control force (pre-injection control value=145 to 165 g). The percent reduction in force was assigned a ‘range’ score: 0=no block (or baseline); 1=minimal block, force between the pre-injection control value of 100% and 50%; 2=moderate block, force between 50% of the pre-injection control value and 20 g (˜20 g represented the approximate weight of the flaccid limb); 3=complete block, force 20 g or less.
For both nociceptive and motor assessment, the examination was repeated three times at each time point and reported as an average of the three exams.

sciatic nerve [3] = assay: Rat sciatic nerve block: nociception (nocifensive withdrawal reflex and vocalization to skin pinch); format: in vivo; conditions: for kind of blockade (nociceptive vs motor), in words: local anesthetic with injection of capsaicin 0.05% 10 minutes later; for effect of vehicle on block, in words: vehicle (10% ethanol, 10% Tween 80, 80% saline) injected 10 min after the drug; for dose-response of block, in words: 0.0625, 0.125 and 0.25%, injection followed by capsaicin
skin = assay: Skin appearance / irritation after transdermal patch; format: in vivo, rat
Excerpt: (§1) It was hypothesized that the combined application of amitriptyline and capsaicin as a transdermal patch will produce prolonged cutaneous analgesia compared to amitriptyline alone. Male Sprague-Dawley rats (weights 250-300 g) were assigned to five treatment groups (n=6-8). Transdermal patches containing amitriptyline with different concentrations of capsaicin were applied to the rats' shaved backs: 2.5% amitriptyline alone (control group) and in combinations with 0.05%, 0.15%, 1, and 8% capsaicin for 3 hours. Behavioral testing for cutaneous nociception was conducted before and after patch removal, using the cutaneous trunci muscle reflex (CTMR). In addition, skin appearance was assessed to determine irritation by the formulation.

[4] = tested on: cutaneous trunci muscle reflex; format: in vivo, rat
Excerpt: as §1

[5] = 0.25% drug + 0.05% capsaicin (10 min apart)
[6] = 0.25% drug + 0.05% capsaicin (mixed)
[7] = 0.25% drug + vehicle (10 min apart)
[8] = 0.0625% drug + 0.05% capsaicin (10 min apart)
[9] = 0.0625% drug alone, 0.2 mL at sciatic notch
[10] = 0.125% drug + 0.05% capsaicin (10 min apart)
[11] = 0.125% drug + 0.05% capsaicin (mixed)
[12] = 0.125% drug + vehicle (10 min apart)
[13] = 0.125% solution administered alone
[14] = 2.5% amitriptyline patch alone, applied 3 hours
[15] = 2% drug + 0.05% capsaicin (10 min apart)
[16] = 2% drug + 0.05% capsaicin (mixed)
[17] = 2% drug + vehicle (10 min apart)

Row | SMILES | Complete recovery time, Motor, Mean (sciatic nerve [2]; [5]) [h] | Complete recovery time, Motor, Mean (sciatic nerve [2]; 0.25% drug alone) [h] | Complete recovery time, Nociception, Mean (sciatic nerve [3]; [5]) [h] | Complete recovery time, Nociception, Mean (sciatic nerve [3]; 0.25% drug alone) [h] | kind of blockade (nociceptive vs motor), in words (sciatic nerve [3]) | effect of vehicle on block, in words (sciatic nerve [3]) | Complete recovery time, Motor, Mean (sciatic nerve [2]; [8]) [h] | Complete recovery time, Motor, Mean (sciatic nerve [2]; [9]) [h] | Complete recovery time, Motor, Mean (sciatic nerve [2]; [10]) [h] | Complete recovery time, Motor, Mean (sciatic nerve [2]; [11]) [h] | Complete recovery time, Motor, Mean (sciatic nerve [2]; [12]) [h] | Complete recovery time, Motor, Mean (sciatic nerve [2]; 0.125% drug alone) [h] | Complete recovery time, Nociception, Mean (sciatic nerve [3]; [8]) [h] | Complete recovery time, Nociception, Mean (sciatic nerve [3]; [9]) [h] | dose-response of block, in words (sciatic nerve [3]) | Complete recovery time, Nociception, Mean (sciatic nerve [3]; [10]) [h] | Complete recovery time, Nociception, Mean (sciatic nerve [3]; [11]) [h] | Complete recovery time, Nociception, Mean (sciatic nerve [3]; [12]) [h] | Complete recovery time, Nociception, Mean (sciatic nerve [3]; 0.125% drug alone) [h] | kind of blockade (nociceptive vs motor), in words (sciatic nerve [3]; hydrochloride) | other results
1 | CC[N+](CC)(CC)CC(=O)Nc1c(C)cccc1C [QX-314] | – | – | – | – | – | – | – | – | – | – | – | – | – | – | – | – | – | – | – | – | kind of sciatic nerve block, in words (sciatic nerve [1]): nociceptor-selective sciatic nerve block
2 | CCCCN1CCCCC1C(=O)Nc1c(C)cccc1C (stereo not shown) [Bupivacaine, bupivacaine hydrochloride] | 2.31 | 2.31 | 23.14 | 2.50 | predominantly nociceptive-specific blockade | intensification of both motor and nociceptive block | – | – | – | – | – | – | – | – | – | – | – | – | – | – | Complete recovery time, Motor, Mean (sciatic nerve [2]; [6]): 1.56 h; Complete recovery time, Motor, Mean (sciatic nerve [2]; [7]): 2.87 h; effect on motor block, in words (sciatic nerve [2]; capsaicin given simultaneously with the local anesthetic): decreased the absolute duration of motor block; Complete recovery time, Nociception, Mean (sciatic nerve [3]; [6]): 1.63 h; Complete recovery time, Nociception, Mean (sciatic nerve [3]; [7]): 4.75 h; nociceptive vs motor blockade, in words (sciatic nerve [3]; 0.25%, followed by capsaicin or vehicle 10 minutes later): significantly increased the nociceptive blockade over motor blockade
3 | C[N+](C)(C)CCC=C1c2ccccc2CCc2ccccc21 [N-Methyl Amitriptyline, N-methyl amitriptyline] | 1.81 | 1.44 | 33.00 | 3.63 | predominantly nociceptive-specific blockade | – | 0.06 | 0.12 | 0.04 | 0.12 | 0.38 | 0.31 | 0.13 | 0.00 | dose-dependent and predominantly nociceptive block | 11.63 | 10.87 | 0.81 | 0.67 | – | duration of motor blockade (sciatic nerve [2]; [13]): < 1 h; kind of blockade, in words (sciatic nerve [3]; 0.125% + capsaicin 0.05%, 10 minutes after or injected simultaneously): very prolonged sensory-selective block; duration of nociceptive blockade (sciatic nerve [3]; [13]): < 1 h
4 | COc1cc(CNC(=O)CCCCC=CC(C)C)ccc1O [capsaicin, 8-methyl-N-vanillyl-6-nonenamide] | – | – | – | – | – | – | – | – | – | – | – | – | – | – | – | – | – | – | – | – | motor and nociceptive block, in words (sciatic nerve [3]; injected alone, 0.05%, 0.2 mL): no detectable block
5 | CN(C)CCC=C1c2ccccc2CCc2ccccc21 [Amitriptyline, amitriptyline hydrochloride] | 2.31 | 9.13 | 33.37 | 11.25 | – | – | 1.38 | 0.44 | 3.25 | 0.44 | 2.62 | 3.44 | 2.88 | 0.25 | dose-dependent and predominantly nociceptive block | 17.25 | 2.69 | 2.13 | 4.56 | predominantly nociceptive-specific blockade; also recorded: large differential block | skin effects, in words (skin; 2.5% amitriptyline patch alone): causes toxic effects in skin; skin effects, in words (skin; amitriptyline 2.5% with capsaicin 8% patch): no adverse skin reactions; effect on motor block, in words (sciatic nerve [2]; 0.25%, followed by capsaicin): motor block decreased; effect on motor block, in words (sciatic nerve [2]; capsaicin given simultaneously with the local anesthetic, hydrochloride): significantly decreased the motor blockade; also recorded: decreased the absolute duration of motor block; complete block to pinprick (duration) [4, 14]: 4.5 h; time to full recovery [4, 14]: 96 h; complete block to pinprick (duration) ([4]; 3 h): 6 to 9 h; time to full recovery ([4]; 3 h): 216 h
6 | CCN(CC)CC(=O)Nc1c(C)cccc1C [Lidocaine, lidocaine hydrochloride] | – | – | – | – | – | intensification of both motor and nociceptive block | – | – | – | – | – | – | – | – | – | – | – | – | – | smallest differential block among all drug combinations | Complete recovery time, Motor, Mean (sciatic nerve [2]; [15]): 1.69 h; Complete recovery time, Motor, Mean (sciatic nerve [2]; [16]): 1.50 h; Complete recovery time, Motor, Mean (sciatic nerve [2]; [17]): 2.00 h; Complete recovery time, Motor, Mean (sciatic nerve [2]; 2% drug alone): 1.13 h; Complete recovery time, Nociception, Mean (sciatic nerve [3]; [15]): 7.62 h; Complete recovery time, Nociception, Mean (sciatic nerve [3]; [16]): 3.00 h; Complete recovery time, Nociception, Mean (sciatic nerve [3]; [17]): 2.12 h; Complete recovery time, Nociception, Mean (sciatic nerve [3]; 2% drug alone): 1.25 h; motor and nociceptive block, in words (sciatic nerve [3]; 2% given alone): complete but relatively short-lasting motor and nociceptive block; kind of blockade (nociceptive vs motor), in words (sciatic nerve [3]; listed as lidocaine, hydrochloride): predominantly nociceptive-specific blockade

Source: patent US20100190860A1, “METHODS FOR SELECTIVELY ENHANCING ANTINOCICEPTIVE POTENCY OF LOCAL ANESTHETICS” (The Brigham and Women's Hospital, Inc., priority 2009, published 2010)
